Tests used:
mice = test: Topical treatment of mothers throughout pregnancy, offspring development; assay type: in vivo, mouse; settings: mothers treated topically, 0.5M, conception to birth
Excerpt: Acute Promyelocytic Leukemia (APL) is unique among myeloid leukemias due to its sensitivity to all-trans retinoic acid (ATRA), a derivative of vitamin A. Treatment with ATRA dissociates the NCOR-HDACL complex from RAR and allows DNA transcription and differentiation of the immature leukemic promyelocytes into mature granulocytes by targeting the oncogenic transcription factor and its aberrant action. […] A large number of scientific studies have also investigated a possible role for vitamin D in cancer prevention, including colon, prostate, breast, pancreatic and skin cancer. […] However, there are also reports of synergistic effects on the activation of gene expression by ATRA and Wnt for example (47). […] This is the same region of these coactivator proteins (i.e., CBP and p300) that partners with catenin (both beta and gamma) and the CBP/catenin antagonists (e.g., ICG-001) also bind to this region. These nuclear receptor ligands have many of the same differentiating effects on stem cell populations that applicant has observed with specific CBP/catenin antagonists. Although, both Vitamin A and D are required during development and have many beneficial health effects in adulthood, both are teratogenic at high levels. […]

[1] = tested on: bleomycin-induced pulmonary fibrosis; test: Bleomycin-induced lung injury / pulmonary fibrosis; assay type: in vivo, mouse
[2] = tested on: rat type II lung epithelial cells; test: TGF-β1-induced EMT genes in lung epithelial cells; assay type: cell-based
Excerpt: Fibrosis. Idiopathic pulmonary fibrosis (IPF)/usual interstitial pneumonia (UIP), the most common of the idiopathic interstitial pneumonias, is a devastating, progressive disorder characterized by excessive fibroblast proliferation and extracellular matrix remodeling leading to lung destruction. There is currently no effective therapy for this uniformly fatal disease. An emerging paradigm proposes a central role for alveolar epithelial cell injury and dysregulated repair in the pathogenesis of IPF. Injury to the epithelium is thought to initiate a cascade of fibroblast activation and matrix deposition, which in predisposed hosts fails to resolve as it would in the course of normal wound repair. Epithelial cells undergo excessive apoptosis, whereas fibroblasts are less amenable to apoptosis and manifest increased survival. The well-characterized model of bleomycin-induced lung injury has been extensively used to investigate potential pathways involved in the pathogenesis of pulmonary fibrosis and to explore therapeutic approaches.

[3] = tested on: cerebral deposition of Aβ; test: Aβ deposition in penta-transgenic mouse model of Alzheimer's disease; assay type: in vivo; settings: 50 mg/kg/day, 2 months
Method: Applicant utilized a penta-transgenic mouse model of AD, which normally develops massive cerebral deposition of Aβ starting at 6 weeks of age. These mice were treated with either (A) ICG-001 (50 mg/kg/day) or (B) saline for 2 months. […] However, the effects of PS-1 mutations on the stability of beta-catenin, TCF/beta-catenin signaling, and thereby its potential role in AD remain controversial. […] In the CNS, EpB2 expression is associated with axonal guidance (16). […] In initial in vivo studies, applicant treated penta-transgenic mice that over express mutant APP (695) (Swedish (K670N, M671L), Florida (I716V) and London (V717I)) and PS-1 (M146L and L286V) mutations with ICG-001 for 2 months (months 2-4). These mice normally develop massive cerebral deposition of Aβ starting at 6 weeks of age.

Colorectal cancer cells = test: Survivin expression and cytotoxicity in colorectal cancer cells; assay type: cell-based
Excerpt: Cancer. The importance of Wnt signaling in colorectal cancer is undisputed. Applicant's investigation on the therapeutic utility of ICG-001 therefore quite naturally began with colon cancer.

[4] = tested on: mitotic cells in the ventricular zone (VZ); test: Par3 localization assay of symmetric versus asymmetric divisions in the ventricular zone of embryonic brain; assay type: in vivo, mouse
Excerpt: Taking advantage of the ready uptake and penetration through the placental barrier of applicant's small molecule Wnt modulators, applicant designed a series of experiments to investigate symmetric versus asymmetric divisions in the ventricular zone (VZ) of the brain during mouse embryonic development. Timed pregnant mice were topically treated for various time periods (1-3 days) with DMSO (vehicle control), the CBP/catenin antagonist ICG-001 or the p300/catenin antagonist IQ-1. Using a previously described protocol (56), the localization of […] (Par3) and DNA was examined in mitotic cells in the VZ. Par3 distributes symmetrically in cells that divide symmetrically and asymmetrically in cells that divide asymmetrically, whereas the DNA distributes symmetrically between the 2 cells. Using fluorescence microscopy, the percentage of mitotic cells dividing symmetrically or asymmetrically could be quantified. […] Antagonizing the CBP/catenin interaction with ICG-001 had no apparent effect yielding similarly, approximately 21% asymmetric divisions. […] Importantly, this decrease in asymmetric divisions upon treatment with IQ-1 could be rescued back essentially to control levels (i.e. ˜21%) by treatment with a 2-fold excess of ICG-001. Even further divergence in symmetric versus asymmetric divisions could be seen upon prolonged treatments. For example, treatment with IQ-1 (i.e., antagonizing p300/catenin interaction leading to increased usage of CBP) for 3 days (E13.5-16.5) decreased asymmetric divisions compared to control from 31% to 7%. […] This reporter mouse expresses EGFP, driven by the Tis21 promoter, in cells that have undergone neurogenic differentiative divisions.
For example, Bultje et al. (Bultje R Neuron 63, 189-202, 2009) describe an assay to measure asymmetric distributions in the ventricular zone (vz) to evaluate asymmetric divisions during neurogenesis. Essentially this involves treating the animal (either adult or in utero) for a set period of time with compounds (either p.o., s.c., i.v. or topically) with compounds and then sacrificing the animal and examining the Par3 distribution (e.g., via immunohistochemistry) in mitotic cells vs. DNA distribution (e.g., using DAPI staining) Par3 distributes equally among the two daughter cells during symmetric division and unequally (essentially all in one daughter cell) during asymmetric differentiation.

fertility of offspring (mice): could breed a second generation
weight and size of offspring at 6 weeks of age (mice): normal weight and size
SMILES: O=C1[C@H](Cc2ccc(O)cc2)N2C(=O)CCN(C(=O)NCc3ccccc3)[C@H]2CN1Cc1cccc2ccccc12 [ICG-001]
lacZ expression in airway and alveolar epithelium ([1]; BAT-gal transgenic mice, intranasal bleomycin): significantly reduced
expression of genes associated with fibrosis, ECM deposition and EMT ([1]; after bleomycin): essentially to the level of control
expression of S100A4/FSP-1 ([1]; in vivo in the mouse): significantly decreased
established fibrosis ([1]; mouse model): could reverse established fibrosis
severity of pulmonary fibrosis ([1]; pretreatment): significantly reduced the severity
TGF-β1-induced up-regulation of α-SMA and type I collagen [2]: prevents
Aβ staining in the parietal lobe [3]: significant (A) decrease
amyloid plaque formation ([3]; immunohistochemistry): significant decrease
survivin expression (Colorectal cancer cells): down-regulated
cytotoxicity (Colorectal cancer cells; colorectal cancer cells versus normal colonic epithelial cells): selective cytotoxicity
asymmetric divisions in the VZ after IQ-1, rescued ([4]; IQ-1 plus 2-fold excess of ICG-001): approximately 21%
defect in asymmetric divisions caused by IQ-1 ([4]; excess ICG-001): corrects the defect
number of asymmetric divisions compared to vehicle control ([4]; topical or oral administration to pregnant mice): does not affect
asymmetric divisions in the VZ ([4]; topical, 1 day, E13.5 to 14.5, DMSO approximately 21%): approximately 21%
